Results: the supplement of paper PMC4380931

Columns and labels:
[1] = system: K2; assay: apoptotic fraction of cells (caspase-3 NucView488 positive); higher = more apoptosis
Experimental: (§1)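 BRAF V600E/D melanoma cell lines were seeded in 96-well plates, treated in 4 replicates with seven doses (3.16 nM to 3.16 uM) of RAF/MEK inhibitors for 24, 48 or 72 h, and stained with Hoechst 33342 (nuclei) and DEVD-NucView488 caspase-3 substrate. Plates were imaged on an Operetta. Relative viability is the cell count normalised to a DMSO-treated control; apoptosis fraction is the fraction of NucView488-positive nuclei.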

[2] = system: C32; assay: as above
Experimental: as §1

[3] = system: COLO858; assay: as above
Experimental: as §1

[4] = system: SKMEL28; assay: relative viability (cell count relative to DMSO-treated control) (fraction of DMSO control); higher = more viable cells / less drug effect
Experimental: as §1

[5] = system: WM115; assay: as above
Experimental: as §1

[6] = system: C32; assay: as above
Experimental: as §1

[7] = system: COLO858; assay: as above
Experimental: as §1

Cn1cnc2c(F)c(Nc3ccc(Br)cc3Cl)c(C(=O)NOCCO)cc21 [Selumetinib]
Details	apoptotic fraction of cells, [1]	apoptotic fraction of cells, [2]	apoptotic fraction of cells, [3]	relative viability, [4]	relative viability, [5]	relative viability, [6]	relative viability, [7]
24 h, 0.00316 µM	0.00506	0.0878	0.0501	–	1.06	1.02	0.844
24 h, 0.01 µM	0.00321	0.113	0.0441	–	1.27	1.02	1.09
24 h, 0.0316 µM	0.00454	0.144	0.0433	–	1.36	1	1.24
24 h, 0.1 µM	0.0128	0.213	0.0474	–	1.27	0.891	1.12
24 h, 0.316 µM	0.0266	0.215	0.083	–	1.46	0.938	1.01
24 h, 1 µM	0.123	0.236	0.137	–	0.89	0.861	0.937
24 h, 3.16 µM	0.142	0.272	0.149	–	0.728	0.811	0.856
48 h, 0.00316 µM	0.0027	0.0773	0.0496	0.799	1.02	1.24	0.983
48 h, 0.01 µM	0.00331	0.0963	0.049	1.31	1.39	1.09	1.05
48 h, 0.0316 µM	0.0058	0.0636	0.0473	1.43	1.37	1.15	1.06
48 h, 0.1 µM	0.0372	0.107	0.0649	1.12	1.48	0.959	0.702
48 h, 0.316 µM	0.0691	0.262	0.155	0.964	1.24	0.71	0.455
48 h, 1 µM	0.199	0.598	0.232	0.852	0.823	0.322	0.374
48 h, 3.16 µM	0.332	0.83	0.313	0.604	0.592	0.127	0.315
72 h, 0.00316 µM	–	0.103	0.0958	1.06	1.03	0.891	0.974
72 h, 0.01 µM	–	0.0822	0.0753	0.975	1.07	0.998	1.05
72 h, 0.0316 µM	–	0.0406	0.0678	0.804	0.918	0.952	0.843
72 h, 0.1 µM	–	0.108	0.0769	0.543	0.751	0.698	0.545
72 h, 0.316 µM	–	0.403	0.134	0.449	0.587	0.347	0.427
72 h, 1 µM	–	0.759	0.259	0.419	0.409	0.112	0.342
72 h, 3.16 µM	–	0.862	0.383	0.337	0.287	0.0615	0.28

CN(C)CCOc1ccc(-c2nc(-c3ccncc3)c(-c3ccc4c(c3)CC/C4=N\O)[nH]2)cc1
Details	apoptotic fraction of cells, [1]	apoptotic fraction of cells, [2]	apoptotic fraction of cells, [3]	relative viability, [4]	relative viability, [5]	relative viability, [6]	relative viability, [7]
24 h, 0.00316 µM	0.00595	0.0901	0.0451	–	1.06	1.07	0.866
24 h, 0.01 µM	0.00244	0.138	0.0421	–	1.33	1.05	1.21
24 h, 0.0316 µM	0.00221	0.159	0.0423	–	1.36	1.09	1.2
24 h, 0.1 µM	0.00264	0.194	0.0572	–	1.4	1.05	1
24 h, 0.316 µM	0.0035	0.225	0.0792	–	1.35	0.971	0.946
24 h, 1 µM	0.0129	0.24	0.123	–	1.15	0.842	0.883
24 h, 3.16 µM	0.0372	0.271	0.13	–	1.28	0.779	0.811
48 h, 0.00316 µM	0.00193	0.0832	0.0512	0.835	1.31	1.2	0.963
48 h, 0.01 µM	0.00284	0.121	0.0508	1.45	1.47	1.04	1.03
48 h, 0.0316 µM	0.00174	0.0893	0.0484	1.59	1.54	1.03	0.929
48 h, 0.1 µM	0.00423	0.077	0.0742	1.29	1.44	1.06	0.584
48 h, 0.316 µM	0.00888	0.189	0.153	1.1	1.42	0.858	0.431
48 h, 1 µM	0.0309	0.38	0.237	0.906	0.972	0.551	0.341
48 h, 3.16 µM	0.0801	0.524	0.341	0.643	0.683	0.4	0.277
72 h, 0.00316 µM	–	0.0657	0.0855	1.08	1.03	1.1	1.07
72 h, 0.01 µM	–	0.0532	0.0692	0.92	1.02	1.19	1.21
72 h, 0.0316 µM	–	0.0299	0.0676	0.897	0.889	1.08	0.906
72 h, 0.1 µM	–	0.0807	0.077	0.734	0.773	0.762	0.605
72 h, 0.316 µM	–	0.274	0.141	0.542	0.683	0.436	0.494
72 h, 1 µM	–	0.474	0.268	0.544	0.584	0.276	0.381
72 h, 3.16 µM	–	0.542	0.424	0.373	0.573	0.209	0.29

CCCS(=O)(=O)Nc1ccc(F)c(C(=O)c2c[nH]c3ncc(-c4ccc(Cl)cc4)cc23)c1F [Vemurafenib]
Details	apoptotic fraction of cells, [1]	apoptotic fraction of cells, [2]	apoptotic fraction of cells, [3]	relative viability, [4]	relative viability, [5]	relative viability, [6]	relative viability, [7]
24 h, 0.00316 µM	0.00416	0.0798	0.0468	–	1.17	0.987	0.782
24 h, 0.01 µM	0.00233	0.139	0.0448	–	1.2	0.995	1.02
24 h, 0.0316 µM	0.00265	0.166	0.0467	–	1.22	1.03	1.05
24 h, 0.1 µM	0.00174	0.186	0.0418	–	1.18	0.985	0.988
24 h, 0.316 µM	0.00473	0.202	0.0538	–	1.17	0.997	0.916
24 h, 1 µM	0.0444	0.17	0.0998	–	1.22	0.927	0.824
24 h, 3.16 µM	0.183	0.309	0.151	–	1.24	0.637	0.703
48 h, 0.00316 µM	0.00306	0.11	0.0487	0.828	1.04	1.07	0.926
48 h, 0.01 µM	0.00257	0.173	0.0502	1.18	1.24	0.901	1.02
48 h, 0.0316 µM	0.00173	0.186	0.048	1.18	1.24	0.891	1
48 h, 0.1 µM	0.00229	0.127	0.0491	1.07	1.45	0.96	0.933
48 h, 0.316 µM	0.0116	0.0971	0.0797	0.973	1.73	0.988	0.574
48 h, 1 µM	0.0823	0.407	0.194	0.71	1.31	0.551	0.362
48 h, 3.16 µM	0.237	0.862	0.453	0.542	0.884	0.102	0.215
72 h, 0.00316 µM	–	0.0761	0.0879	0.955	0.953	1.04	1.21
72 h, 0.01 µM	–	0.0907	0.0831	0.88	1.04	1.07	1.18
72 h, 0.0316 µM	–	0.0843	0.0746	0.947	1.05	1.02	1.31
72 h, 0.1 µM	–	0.061	0.0587	0.922	1.07	0.875	1.15
72 h, 0.316 µM	–	0.114	0.0687	0.651	0.855	0.684	0.68
72 h, 1 µM	–	0.658	0.25	0.491	0.571	0.162	0.393
72 h, 3.16 µM	–	0.928	0.723	0.39	0.27	0.0274	0.127
